Data published in publication PMC7801405, “Structure, substrate specificity, and catalytic mechanism of human D-2-HGDH and insights into pathogenicity of disease-associated mutations” (Cell Discovery, 2021).
Blank lines part the entries; values can stand above or below the molecule they belong to.

Key:
[1] = target: T1, D-2-hydroxyglutarate dehydrogenase (D-2-HGDH) (Homo sapiens, UniProt Q8N465); assay: crystal structure ([…] Å); SPR with DTT-treated protein (reduced FAD); no measurable binding to the untreated protein
T1 construct: gene D2HGDH
T1 sequence (Q8N465 51-521): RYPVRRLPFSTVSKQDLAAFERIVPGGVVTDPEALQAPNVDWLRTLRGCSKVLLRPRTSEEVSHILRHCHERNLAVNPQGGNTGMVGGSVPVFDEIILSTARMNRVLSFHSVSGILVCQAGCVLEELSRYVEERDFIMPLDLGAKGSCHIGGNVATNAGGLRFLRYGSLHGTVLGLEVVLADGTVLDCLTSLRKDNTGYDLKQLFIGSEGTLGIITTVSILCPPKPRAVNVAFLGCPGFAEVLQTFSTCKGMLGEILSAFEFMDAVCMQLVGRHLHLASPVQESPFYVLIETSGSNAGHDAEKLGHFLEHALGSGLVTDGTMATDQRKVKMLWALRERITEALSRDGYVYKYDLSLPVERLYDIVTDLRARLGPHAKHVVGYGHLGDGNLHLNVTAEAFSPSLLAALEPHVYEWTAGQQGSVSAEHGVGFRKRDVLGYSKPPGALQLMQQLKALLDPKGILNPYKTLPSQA

[2] = target: T1, D-2-hydroxyglutarate dehydrogenase (D-2-HGDH); assay: crystal structure ([…] Å), SPR, enzyme kinetics; format: binding
[3] = target: T1, D-2-hydroxyglutarate dehydrogenase (D-2-HGDH); assay: crystal structure ([…] Å), SPR, enzyme kinetics; format: binding; remark: listed apart in the source
[4] = target: T1, D-2-hydroxyglutarate dehydrogenase (D-2-HGDH); assay: crystal structure ([…] Å), SPR, enzyme kinetics; format: binding; remark: listed apart in the source

Compound: O=C(O)CCC(=O)C(=O)O [2-OG, 2-oxoglutarate]
- Kd [1]: 7 mM

- Kd [2]: 149 µM
Compound: O=C(O)CC[C@@H](O)C(=O)O [D-2-HG, D-2-hydroxyglutarate]

- Kd [3]: 1.62 mM
Compound: C[C@@H](O)C(=O)O [D-LAC, D-lactate]

- Kd [4]: 799 µM
Compound: O=C(O)C[C@@H](O)C(=O)O [D-MAL, D-malate]
